Measured values reported in US20250228824A1, “COMPOSITIONS AND METHODS FOR INHIBITION OF ITO AS TREATMENT FOR THE J WAVE SYNDROMES AND HYPOTHERMIA” (Lankenau Institute for Medical Research, priority 2021, published 2025).

What was measured:
[1] = test system: coronary-perfused canine right ventricular (RV) wedge models of JWS, hypothermia; assay: Coronary-perfused RV wedge model of hypothermia (NS5806 plus decreasing temperature); conditions: NS5806 2 μM, 32.7±0.5° C., AR-787 10 μM, 20 min
Method: Transmural wedges were dissected from the base of the RV and LV. During the cannulation procedure, preparations were initially arterially perfused with cardioplegic solution. Next, the wedge preparations were placed in a tissue bath and perfused with a modified Krebs-Henseleit solution (K—H) bubbled with 95% O2/5% CO2 warmed to 37° C. The composition of K—H was (in mM): 118 NaCl, 4 KCl, 2 CaCl2, 1.2 MgSO4, 24 NaHCO3, 1.2 NaH2PO4, 2 Na Pyruvate and 10 D-Glucose. The perfusate was delivered at a constant pressure (45-50 mmHg). A transmural pseudo-ECG (ECG) was recorded using two Ag/AgCl half cells placed at ˜1 cm from the Epi (+) and Endo (−) surfaces along the same axis as the transmembrane action potential (AP) recordings. APs were simultaneously recorded from the immediate sub-Epi and M cell region (˜2-3 mm from the Endo surface) using floating glass microelectrodes. […] A detailed description of the arterially-perfused ventricular wedge preparation has been previously published.^5 ECG and AP signals were digitized and analyzed using Spike 2 for Windows (Cambridge Electronic Design, Cambridge, UK). […]
FIG. 9A-9C show the ability of AR-787 to suppress the ECG and arrhythmic manifestations in a model of hypothermia. […] The third grouping was recorded 10 minutes after lowering the temperature of the perfusate to 32.7±0.5° C. […] The fourth column was recorded 20 min after addition of AR-787 (10 μM).

KV11.1 (hERG-IKr) = target: T1, KV11.1 (hERG-IKr) (Homo sapiens, UniProt Q12809); assay: Whole-cell patch clamp of IKr in HEK cells stably expressing hERG; type: cell-based; conditions: 50 μM
T1 construct: stably expressing hERG channels (NM_000238); expressed in transfected cells
T1 sequence (Q12809 whole entry): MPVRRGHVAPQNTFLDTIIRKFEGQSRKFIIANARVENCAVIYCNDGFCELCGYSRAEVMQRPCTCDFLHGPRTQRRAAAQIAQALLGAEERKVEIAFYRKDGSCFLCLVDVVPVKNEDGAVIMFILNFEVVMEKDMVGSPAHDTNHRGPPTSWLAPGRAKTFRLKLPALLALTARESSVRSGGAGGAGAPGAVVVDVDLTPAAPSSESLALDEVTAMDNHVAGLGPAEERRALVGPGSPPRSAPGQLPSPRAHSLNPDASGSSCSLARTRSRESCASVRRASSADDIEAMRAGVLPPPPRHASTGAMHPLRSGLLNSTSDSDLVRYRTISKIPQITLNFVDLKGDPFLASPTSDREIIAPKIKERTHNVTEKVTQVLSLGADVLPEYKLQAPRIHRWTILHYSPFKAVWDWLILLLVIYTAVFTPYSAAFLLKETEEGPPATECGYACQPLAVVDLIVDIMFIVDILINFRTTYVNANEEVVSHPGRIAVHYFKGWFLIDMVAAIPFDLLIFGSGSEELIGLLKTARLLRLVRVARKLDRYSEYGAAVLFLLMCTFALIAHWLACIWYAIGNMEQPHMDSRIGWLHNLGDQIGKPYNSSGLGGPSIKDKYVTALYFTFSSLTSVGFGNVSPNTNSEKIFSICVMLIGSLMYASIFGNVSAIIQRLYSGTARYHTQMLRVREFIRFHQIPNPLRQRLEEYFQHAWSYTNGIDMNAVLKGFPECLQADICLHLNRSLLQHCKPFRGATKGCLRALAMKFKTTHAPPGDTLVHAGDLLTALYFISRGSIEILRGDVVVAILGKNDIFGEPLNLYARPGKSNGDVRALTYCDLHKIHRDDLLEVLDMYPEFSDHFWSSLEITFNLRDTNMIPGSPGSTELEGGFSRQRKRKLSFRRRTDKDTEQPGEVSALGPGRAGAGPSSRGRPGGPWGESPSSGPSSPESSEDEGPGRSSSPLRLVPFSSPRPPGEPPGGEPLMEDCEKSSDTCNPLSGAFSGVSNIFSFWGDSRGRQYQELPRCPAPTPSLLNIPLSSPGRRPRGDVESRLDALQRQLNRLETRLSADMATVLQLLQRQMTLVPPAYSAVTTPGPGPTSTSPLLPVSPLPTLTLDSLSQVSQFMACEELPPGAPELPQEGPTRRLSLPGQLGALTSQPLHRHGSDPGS
Method: Human Embryonic Kidney (HEK) cells stably expressing hERG channels (NM_000238) were used to evaluate the effect of AR-787 on IKr. The HEK cells were cultured in vented flasks using standard methods. The culture media consisted of MEM α-modified, 10% FBS, 1% L-glutamine, 1% pen-strep and 0.4% G418 (Geneticin). Cells were passaged at 50% confluence.
For electrophysiological study, cells were released from culture with trypsin, rinsed with Ca^2+-free external solution and maintained on ice until used (up to 4 hr). An aliquot of cells was place in a chamber on an inverted microscope (Nikon Diaphot) and perfused with external solution at a rate of 1 ml/min at room temperature. The external solution contained in (mM): 140 NaCl, 5 KCl, 2 CaCl2, 1 MgCl2, 10 HEPES and 10 glucose at pH 7.4 (adjusted with NaOH). Membrane currents recorded with an Axopatch 200B amplifier controlled by Clampex software were digitized at a sampling rate of 10 kHz and filtered at 2 kHz. Micropipettes were fabricated from borosilicate glass and generally had resistances of 1.8-2.4 MΩ when filled with internal solution consisting of (mM): 140 KCl, 1 MgCl2, 5 Na2ATP, 10 HEPES and 10 EGTA (pH 7.3 adjusted with KOH; 300 mOsm). Pipette offset and stray capacitance were compensated with the pipette in the bath solution before seal formation. After achieving cell access, whole-cell capacitance and series resistance were compensated optimally. Series resistance prediction and correction were usually adjusted to 85% or higher leaving an uncompensated series resistance of less than 1 MΩ and voltage errors estimated to be less than 5 mV. Voltage protocols and currents were recorded on a computer for offline analysis using Clampfit and GraphPad software.
IKr was measured using a two-step protocol. Voltage steps of 4 sec duration were applied at 20 sec intervals from a holding potential of −80 mV to −60 to +40 mV in 10 mV steps, followed by a 4 sec step to −50 mV to record the tail currents. […] The step protocol consisted of a voltage step from a holding potential of −80 mV to a test potential of +10 mV for 4 sec then to −50 mV for 4 second. It was repeated at 20 sec intervals. The step protocol was maintained until the current response achieved a stable level (5-7 min). The I-V protocol was then repeated.
For analysis, the following were determined: 1) currents averaged over the last 100 ms of the first voltage clamp step (−60 to +40 mV) and 2) peak tail current during the second voltage clamp step (at −50 mV). These were divided by cell capacitance to normalize for cell size (pA/pF). The time course of tail current […] was fit with a single exponential function using Clampfit. The voltage dependence of activation was determined from tail currents by dividing current value at each voltage by the maximum value for each I-V protocol. Values of current were averaged among cells and expressed as a mean ±SEM.

## Cc1nc(-n2cccc2)sc1C(=O)N=c1[nH]c2ccccc2[nH]1 [AR-787, N-(1H-benzimidazol-2-yl)-4-methyl-2-pyrrol-1-yl-thiazole-5-carboxamide]
[1]
  hypothermia-induced AP notch, J wave, phase 2 reentry and pVT: diminished the action potential (AP) notch and J wave
KV11.1 (hERG-IKr)
  amplitude of the developing IKr: enhanced between −60 to −20 mV and reduced above 0 mV
  rates of inactivation of IKr tail currents: significantly slowed at positive voltages
  reduction in IKr peak tail current: 50%
  shift in the voltage dependence of both developing and tail currents (IKr): −20 mV
  shift of voltage-dependence of activation (IKr): −25 mV
